Test results: patent US20130131161A1, “METHODS AND COMPOSITIONS FOR CARDIOVASCULAR DISEASES AND CONDITIONS” (priority 2009, published 2013)

Test system: Human umbilical vein endothelial cells (HUVECs)
Test: Comparison of LA-419 and ISDN: NO and ONOO− release from HUVECs measured with tandem electrochemical nanosensors (Example 1)
Assay type: cell-based
Details: for NO release (mean ± S.D.) / ONOO− release (mean ± S.D.): 500 nM, 12 hours, then CaI (1.0 μM); for decrease in NO release / increase in levels of ONOO− / decrease in the NO/ONOO− ratio: pretreatment 12 h
Protocol: Human umbilical vein endothelial cells (HUVECs) were isolated into primary cultures and purchased as proliferating cells from Clonetics (San Diego, Calif.). All cell culture donors were healthy, with no pregnancy or prenatal complications. The cultured cells were incubated in 95% air/5% CO2 at 37° C. and passage by an enzymatic (trypsin) procedure. The confluent cells (4 to 5×10^5 cells per 35-mm dish) were placed with minimum essential medium containing 3 mM L-arginine and 0.1 mM BH4 [(6R)-5,6,7,8-tetrahydrobiopterin]. Before the experiments, the cells (from second or third passage) were rinsed twice with Tyrode-HEPES buffer with 1.8 mM CaCl2. ISDN was obtained from Sigma-Aldrich.
Concurrent measurements of NO and ONOO^− were carried out with tandem electrochemical nanosensors combined into one working unit with a total diameter of 200-500 nm (FIG. 1). Their design was based on previously developed and well-characterized chemically modified carbon-fiber technology (Malinski and Taha, 1992; Lvovich and Scheeline, 1997). Each of the nanosensors was made by depositing a sensing material on the tip of a carbon fiber (length 4-5 μm, diameter 0.2-0.5 μm). The fibers were sealed with nonconductive epoxy and electrically connected to copper wires with conductive silver epoxy. A conductive film of polymeric nickel (II) tetrakis(3-methoxy-4-hydroxyphenyl)porphyrin for the NO-sensor and polymeric film of Mn (III) [2.2]paracyclophanylporphyrin was used for the ONOO^−-sensor.
A module of NO/ONOO^− nanosensors (diameter 1-2 μm) with a platinum wire (0.1 mm) counter electrode and saturated calomel reference electrode (SCE) were applied. Differential pulse voltammetry (DPV) and amperometry were performed with a computer-based Gamry VFP600 multichannel potentiostat. DPV was used to measure the basal NO and ONOO^− concentrations, and amperometry was used to measure changes in NO and ONOO^− concentrations from its basal level with time. The DPV current at the peak potential characteristic for NO oxidation (0.65 V) and ONOO^− reduction (−0.45 V) was directly proportional to the local concentrations of these compounds in the immediate vicinity of the sensor. Linear calibration curves (current vs. concentration) were constructed for each sensor from 10 nM to 3 μM before and after measurements with aliquots of NO and ONOO^− standard solutions, respectively. The detection limit of the sensors was 1.0 nM.
The quantification of each analyte (concentration in nM) was performed using a maximum current from amperograms and standard calibration curves. A reproducibility of measurements with nanosensors is relatively high (between 5-12%). […] The sensors were slowly raised 5±2 μm from the surface of a single endothelial cell. The eNOS agonist, calcium ionophore A23187 (CaI) as well as the different drugs were then added to the surrounding media at the cell surface with a nanoinjector that was also positioned by a computer controlled-micromanipulator.
The HUVEC preparation is stable over the course of these experiments with the cells remaining viable in culture for >24 hours. Under non-stimulating conditions, basal levels of NO release are very low (<30 nM). Measurement of NO release as a function of treatment was conducted in individual endothelial cells. Multiple measurements of NO release can be conducted on single cells following a brief refractory period. For robust statistical analysis, separate cells were used for each concentration and type of drug used in these analyses.

[1] = HUVECs from Non-Hispanic Whites

O=[N+]([O-])O[C@H]1CO[C@H]2[C@@H]1OC[C@H]2O[N+](=O)[O-] [ISDN, isosorbide dinitrate]
NO release (mean ± S.D.) (HUVECs from African Americans): 218 ± 16 nM | ONOO− release (mean ± S.D.) (HUVECs from African Americans): 552 ± 11 nM | NO release (mean ± S.D.) [1]: 343 ± 11 nM | ONOO− release (mean ± S.D.) [1]: 323 ± 9 nM | decrease in NO release (HUVECs from African Americans): 12% | increase in levels of ONOO− (HUVECs from African Americans): 18% | decrease in the NO/ONOO− ratio (HUVECs from African Americans, p<0.05): 25% | decrease in NO release (HUVECs from non-Hispanic whites): 11% | decrease in the NO/ONOO− ratio (HUVECs from non-Hispanic whites, p<0.01): 23% | increase in levels of ONOO− (HUVECs from whites): 16%
